Key:
Type in all cases: in vivo, male C57BL/6JRj mice
DIO-NASH mice [1] = assay: Absolute and relative body weight, measured daily and at termination; conditions: for Absolute body weight at termination / Terminal relative body weight, percentage of starting body weight: group mean; for Terminal relative body weight, percentage of starting body weight: day 83/84/85, baseline day 0=100%
Description: The Diet-induced-obesity (DIO)-NASH mouse model was induced by feeding male C57BL/6JRj mice a high fat diet containing 40% fat with trans-fat, 20% fructose and 2% cholesterol (AMLN diet or D09100301, Research Diets Inc., USA). Induction of NASH was started at 5 weeks of age and mice were fed the AMLN diet for 36 weeks prior to study start resulting in NASH, which was confirmed by pre-biopsy prior to study start as described below.
Absolute body weight, BW, (g) was measured daily throughout the study period. Values expressed as mean of n=11-14+SEM (see FIG. 1).
Absolute body weight at termination (measured day 83/84/85). Values expressed as mean of n=12-14+SEM.
Relative BW, recorded as percentage of starting body weight (baseline day 0=100%), was measured daily throughout the study period. Values expressed as mean of n=11-14+SEM (see FIG. 2).
Terminal relative body weight (measured day 83/84/85), recorded as percentage of starting body weight (baseline day 0=100%). Values expressed as mean of n=12-14+SEM.

DIO-NASH mice [2] = assay: Plasma total cholesterol (TC) at termination; conditions: for Plasma total cholesterol (TC) at termination: group mean
Description: For plasma biochemistry, tail blood was drawn directly through the capillary of a Microvette/Vacuette of the right dimension and anticoagulant and mixed by inversion 5 times. Blood was placed at 4° C. until centrifugation at 3000×g for 10 minutes at 4° C. The plasma supernatants were transferred to new tubes and immediately frozen on dry ice and stored at −80° C. until analysis.
Mouse insulin was measured in single determinations using the MSD platform (Meso Scale Diagnostics).
Plasma total cholesterol (TC) at termination (mmol/L). Values expressed as mean of n=12-14+SEM.

DIO-NASH mice [3] = assay: Liver triglycerides (TG) at termination; conditions: group mean
Description: The liver post-biopsy for histological analyses was removed by dissection from the left lateral lobe, fixated in 4% formalin for 20-24 h, and subsequently embedded in paraffin. Liver biopsies for liver triglycerides and total cholesterol were dissected from the medial lobe, snap frozen in liquid nitrogen, and stored at −80° C., while liver biopsies for hydroxyproline were dissected from the caudal lobe (the entire lobe), snap frozen in liquid nitrogen and stored at −80° C. Finally, a liver sample for RNA isolation and gene expression analysis was dissected from the left lateral lobe, snap frozen in liquid nitrogen, and stored at −80° C. until processing.
For liver TG and TC quantification, samples were homogenized, and TG and TC extracted in 5% NP-40 by heating twice to 90° C. The samples were centrifuged, and the TG and TC content measured in the supernatant, using commercial kits (Roche Diagnostics) on the Cobas c501 autoanalyzer according to the manufacturer's instructions.
Relative (mg/g of liver) liver triglycerides (TG) at termination. Values expressed as mean of n=12-14+SEM.
Total (mg/liver) liver triglycerides (TG) at termination. Values expressed as mean of n=12-14+SEM.

DIO-NASH mice [4] = assay: Liver Collagen 1A1 (Col1a1) IHC quantified by morphometry; conditions: for Relative terminal liver Col1a1 by morphometry / Total terminal Col1a1 (% fractional area multiplied with liver weight): group mean
Description: After surgery, the animals were evaluated daily on general health and body weight. […] The pre-biopsy was analyzed to evaluate liver steatosis score and fibrosis stage for study inclusion as outlined by Kleiner et al. (2005) (Table 1). In addition, liver Collagen 1a1 (Col1a1) quantified by morphometry was used to perform a stratified randomization of NASH-affected animals into study groups (see description of histopathological stains and analyses below).
(§1) Protein markers of fibrosis (Col1a1), fibrogenesis (α-SMA) and inflammation (Gal-3) were assessed by immunohistochemistry. α-SMA and collagen type I increase in regulation of quiescent hepatic stellate cell activation into myofibroblast-like cells where activated hepatic stellate cells are the main collagen producing cells in the liver (Carpino et al 2005, Hou and Syn 2018) whereas Gal-3 is involved in mediating inflammatory response and considered as a macrophage activation marker (Sciacchitano et al, 2018). For morphometric quantification of liver Col1a1 (using antibody from Southern Biotech, Cat. #1310-01), alpha-smooth muscle actin (α-SMA; using antibody from Abcam, Cat. #Ab124964) and Galectin-3 (using antibody from Biolegend, Cat. #125402), IHC staining was performed using standard procedures. Briefly, after antigen retrieval and blocking of endogenous peroxidase activity, slides were incubated with primary antibody. For all IHC stains, the primary antibody was detected using a polymeric HRP-linker antibody conjugate and visualized using DAB as chromogen. Finally, sections were counterstained in hematoxylin and cover-slipped before scanning.
(§2) Quantitative assessment of immunoreactivity is evaluated as follows. IHC-positive staining is quantified by image analysis using the Visiomorph software (Visiopharm, Denmark). Visiomorph protocols are designed to analyze the virtual slides in two steps: 1. Crude detection of tissue at low magnification (1× objective). The liver capsule is excluded. 2. Detection of IHC-positive staining (e.g. green; collagen 1 IHC), tissue (e.g. red) and fat (e.g. pink) at high magnification (10×objective). The quantitative estimate of IHC-positive staining is calculated as an area fraction (AF) according to the following formula:
Liver fibrosis (Col1a1%) at baseline. Values expressed as mean of n=12-14+SEM.
Terminal liver Collagen 1A1 (Col1a1) was quantified by morphometry. Relative Terminal liver Col1a1 (% fractional area) is expressed as mean of n=12-14+SEM.
Total terminal Col1a1 values are in milligrams (% fractional area multiplied with liver weight) and expressed as mean of n=12-14+SEM.

DIO-NASH mice [5] = assay: Liver Galectin-3 IHC quantified by morphometry; conditions: at termination, mean of n=12-14; for Total terminal liver Galectin-3 (Average): % fractional area multiplied with liver weight; for Relative terminal liver Galectin-3 (Average): morphometry
Description: as §1, §2
Terminal liver Galectin-3 was quantified by morphometry. Relative terminal liver Galectin-3 (% fractional area) is expressed as mean of n=12-14+SEM.
Total terminal Galectin-3 values are in milligrams (% fractional area multiplied with liver weight) and expressed as mean of n=12-14+SEM.

[6] = day 83/84/85, CHS-131 High 30 mg/kg, empagliflozin 10 mg/kg, elafibranor 30 mg/kg PO, liraglutide 0.4 mg/kg SC, QD
[7] = CHS-131 High 30 mg/kg, empagliflozin 10 mg/kg, elafibranor 30 mg/kg PO, liraglutide 0.4 mg/kg SC, QD
[8] = CHS-131 High dose (alone or combined)

| SMILES | Absolute body weight at termination (DIO-NASH mice [1]; [6]) | Terminal relative body weight, percentage of starting body weight (DIO-NASH mice [1]; [7]) | Plasma total cholesterol (TC) at termination (DIO-NASH mice [2]; [8]) | Relative liver triglycerides (TG) at termination (DIO-NASH mice [3]; [8]) | Total liver triglycerides (TG) at termination (DIO-NASH mice [3]; [8]) | Relative terminal liver Col1a1 by morphometry (DIO-NASH mice [4]; [8]) | Total terminal Col1a1 (% fractional area multiplied with liver weight) (DIO-NASH mice [4]; [8]) | Total terminal liver Galectin-3 (Average) (DIO-NASH mice [5]) | Relative terminal liver Galectin-3 (Average) (DIO-NASH mice [5]) | also measured |
| --- | --- | --- | --- | --- | --- | --- | --- | --- | --- | --- |
| CSc1ccc(C(=O)/C=C/c2cc(C)c(OC(C)(C)C(=O)O)c(C)c2)cc1 [Elafibranor, reference compound] | 31.8 grams | 86.5% | 5.75 mmol/L | 45.2 mg/g of liver | 196 mg/liver | 6.27 % fractional area | 270 milligrams | 104 milligrams | 2.43 % fractional area |  |
| OC[C@H]1O[C@@H](c2ccc(Cl)c(Cc3ccc(O[C@H]4CCOC4)cc3)c2)[C@H](O)[C@@H](O)[C@@H]1O [Empagliflozin, reference compound] | 39.6 grams | 107% | 7.62 mmol/L | 108 mg/g of liver | 368 mg/liver | 7.31 % fractional area | 250 milligrams | 99.9 milligrams | 2.9 % fractional area |  |
| O=S(=O)(Nc1cc(Cl)c(Oc2cnc3ccccc3c2)c(Cl)c1)c1ccc(Cl)cc1Cl [CHS-131] | 38.2 grams | 102% | 6.38 mmol/L | 92.9 mg/g of liver | 300 mg/liver | 6.77 % fractional area | 220 milligrams |  |  | Body weight, effect in words (DIO-NASH mice [1]; compared to DIO mice administered vehicle only): tends to reduce; Absolute body weight at termination (DIO-NASH mice [1]; day 83/84/85, CHS-131 Low 10 mg/kg PO QD): 38.2 grams; Terminal relative body weight, percentage of starting body weight (DIO-NASH mice [1]; CHS-131 Low 10 mg/kg PO QD): 103%; Plasma TC, effect in words (DIO-NASH mice [2]; DIO-NASH mice, 12 weeks of treatment, summary of data): reduced; Decrease of plasma cholesterol (DIO-NASH mice [2]; DIO-NASH mice, compared to DIO mice administered vehicle only, significant, not in a dose response manner): ~12%; Plasma total cholesterol (TC) at termination (DIO-NASH mice [2]; CHS-131 Low dose): 6.45 mmol/L; Relative liver triglycerides (TG) at termination (DIO-NASH mice [3]; CHS-131 Low dose): 96.7 mg/g of liver; Total liver triglycerides (TG) at termination (DIO-NASH mice [3]; CHS-131 Low dose): 306 mg/liver; Decrease of terminal Collagen 1a1 (marker of fibrosis) (DIO-NASH mice [4]; DIO-NASH mice, compared to vehicle alone, trend): 15%; Relative terminal liver Col1a1 by morphometry (DIO-NASH mice [4]; CHS-131 Low dose): 6.64 % fractional area; Total terminal Col1a1 (% fractional area multiplied with liver weight) (DIO-NASH mice [4]; CHS-131 Low dose): 213 milligrams; Total terminal liver Galectin-3 (Average) (DIO-NASH mice [5]; CHS-131 High dose + Vehicle): 90.6 milligrams; Relative terminal liver Galectin-3 (Average) (DIO-NASH mice [5]; CHS-131 High dose + Vehicle): 2.79 % fractional area; Total terminal liver Galectin-3 (Average) (DIO-NASH mice [5]; CHS-131 Low dose + Vehicle): 93.8 milligrams; Relative terminal liver Galectin-3 (Average) (DIO-NASH mice [5]; CHS-131 Low dose + Vehicle): 2.95 % fractional area |

— patent US20220143003A1, “COMPOSITIONS AND METHODS TO TREAT NON-ALCOHOLIC FATTY LIVER DISEASES (NAFLD)” (Coherus Biosciences, Inc., priority 2018, published 2022)
